According to patent US6890947B2, “Indolyl derivatives” (Hoffmann-La Roche Inc., priority 2002, dated 2005):

Tests used:
human PPARα [1] = target: T1, human PPARα (Homo sapiens, UniProt Q07869); test: Luciferase transcriptional reporter gene assay, pFA-PPARα-LBD in BHK21 cells; type: cell-based; details: Gal4-PPARα-LBD
T1 sequence (Q07869 167-468 limits assumed): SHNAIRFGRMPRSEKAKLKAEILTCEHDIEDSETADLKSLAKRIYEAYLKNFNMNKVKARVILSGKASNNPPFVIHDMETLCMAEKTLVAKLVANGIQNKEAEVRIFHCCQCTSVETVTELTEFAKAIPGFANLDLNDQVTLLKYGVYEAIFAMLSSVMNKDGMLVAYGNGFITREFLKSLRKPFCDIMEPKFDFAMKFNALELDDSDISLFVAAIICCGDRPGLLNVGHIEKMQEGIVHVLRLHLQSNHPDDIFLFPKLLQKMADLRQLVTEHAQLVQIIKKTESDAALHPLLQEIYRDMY
Text: (§1) Full-length cDNA clones for human PPARα and mouse PPARγ were obtained by RT-PCR from human adipose and mouse liver cRNA, respectively, cloned into plasmid vectors and verified by DNA sequencing. […] To accomplish this, the portions of the cloned sequences encoding the LBDs were amplified from the full-length clones by PCR and then subcloned into the plasmid vectors. Final clones were verified by DNA sequence analysis.
(§2) Luciferase Transcriptional Reporter Gene Assays
(§3) Baby hamster kidney cells (BHK21 ATCC CCL10) were grown in DMEM medium containing 10% FBS at 37° C. in a […] atmosphere. Cells were seeded in 6 well plates at a density of 10^5 Cells/well and then transiently batch-transfected with either the pFA-PPARγ-LBD or pFA-PPARα-LBD expression plasmids plus the pFR-luc reporter plasmid and an expression plasmid encoding the secretable form of alkaline phosphatase (SEAP) as a normalization control. […] Six hours following transfection, the cells were harvested by trypsinization and seeded in 96 well plates at a density of 10^4 cells/well. After 24 hours to allow attachment of cells, the medium was removed and replaced with 100 ul of phenol red-free medium containing the test substances or control ligands (final. 0.1% DMSO). Following incubation of the cells for 24 hours with substances, 50 ul of the supernatant was recovered and analyzed for SEAP activity (Roche Molecular Biochemicals). The remainder of the supernatant was discarded, 50 ul PBS was added per well followed by one volume of Luciferase Constant-Light Reagent (Roche Molecular Biochemicals) to lyse the cells and initiate the luciferase reaction. Luminescence for both SEAP and luciferase was measured in a Packard TopCount. Luciferase activity was normalized to the SEAP control and transcriptional activation in the presence of a test substance was expressed as fold-activation over cells incubated in the absence of the substance. EC50 values were calculated using the XLfit program (ID Business Solutions Ltd. UK).

human PPARα [2] = target: T1, human PPARα; test: PPARα radioligand binding assay (GST-PPARα-LBD fusion protein); set-up: made in house; host or cells: E. coli BL21(pLysS)
Text: as §1
(§4) Induction, expression, and purification of GST-LBD fusion proteins were performed in E. coli strain BL21(pLysS) cells by standard methods (Ref: Current Protocols in Molecular Biology, Wiley Press, edited by Ausubel et al.).
(§5) Radioligand Binding Assay
PPARα receptor binding was assayed in TKE10 (10 mM Tris-HCl, pH 8, 50 mM KCl, 2 mM EDTA, […] fatty acid free BSA and 10 mM DTT). For each 96 well 2.4 ug equivalent of GST-PPARα-LBD fusion protein and radioligand, e.g. 40000 dpm 2(S)-(2-benzoyl-phenylamino)-3-{4-[1,1-ditritio-2-(5-methyl-2-phenyl-oxazol-4-yl)-ethoxy]-phenyl}-propionic acid, were incubated in 100 ul volume at RT for 2 hrs. Bound ligand was removed from unbound ligand by solid phase separation using MultiScreen plates (Millipore) filled with 80 ul of SG25 according to the manufacturer's recommendations.
(§6) PPARγ receptor binding was assayed in TKE50 (50 mM Tris-HCl, pH 8, 50 mM KCl, […], 0.1 mg/ml fatty acid-free […] and 10 mM DTT). For each 96 well reaction an 140 ng equivalent of GST-PPARγ-LBD fusion protein was bound to 10 ug SPA beads (PharmaciaAmersham) in a final volume of 50 ul by shaking. The resulting slurry was incubated for 1 h at RT and centrifuged for 2 min at 1300 g. The supernatant containing unbound protein was removed and the semidry pellet containing the recptor-coated beads was resolved in 50 ul of TKE. For radioligand binding e.g. 10000 dpm 2(S)-(2-benzoyl-phenylamino)-3-{4-[1, 1-ditritio-2-(5-methyl-2-phenyl-oxazol-4-yl)-ethoxy]-phenyl}-propionic acid in 50 ul were added, the reaction incubated at RT for 1h and scintillation proximity counting performed. All binding assays were performed in 96 well plates and the amount of bound ligand measured on a Packard TopCount using OptiPlates (Packard). Nonspecific binding was determined in the presence of 10^−4 M unlabelled compound. Dose response curves were done in triplicates within a range of concentration from 10^−10 M to 10^−4 M.

mouse PPARγ [3] = target: T2, mouse PPARγ (Mus musculus, UniProt P37238); test: PPARγ radioligand binding assay (GST-PPARγ-LBD fusion protein, scintillation proximity); details: SPA
T2 sequence (P37238 204-505): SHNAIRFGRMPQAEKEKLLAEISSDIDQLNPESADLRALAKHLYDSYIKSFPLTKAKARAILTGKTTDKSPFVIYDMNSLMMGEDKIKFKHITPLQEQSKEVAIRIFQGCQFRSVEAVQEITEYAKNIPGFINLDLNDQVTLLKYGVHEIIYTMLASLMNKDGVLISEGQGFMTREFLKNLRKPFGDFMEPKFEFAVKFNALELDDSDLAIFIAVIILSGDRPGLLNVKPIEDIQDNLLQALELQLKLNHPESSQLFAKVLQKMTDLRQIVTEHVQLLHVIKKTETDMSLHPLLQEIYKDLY
Text: as §1, §4, §5, §6

mouse PPARγ [4] = target: T2, mouse PPARγ; test: Luciferase transcriptional reporter gene assay, pFA-PPARγ-LBD in BHK21 cells; type: cell-based; set-up: expressed in transfected cells; host or cells: BHK21 (ATCC CCL10); details: Gal4-PPARγ-LBD
Text: as §1, §2, §3

| EC50 (human PPARα [1]) [µM] | IC50 (human PPARα [2]) [µM] | IC50 (mouse PPARγ [3]) [µM] | EC50 (mouse PPARγ [4]) [µM] | SMILES |
| --- | --- | --- | --- | --- |
| 1.52 | 0.24 | – | – | CCO[C@@H](Cc1ccc2c(ccn2Cc2nc(-c3ccccc3Cl)oc2C)c1)C(=O)O [Example 5, (S)-3-{1-[2-(2-Chloro-phenyl)-5-methyl-oxazol-4-ylmethyl]-1H-indol-5-yl}-2-ethoxy-propionic Acid] |
| 0.19 | 0.28 | 0.4 | 0.56 | CCO[C@@H](Cc1ccc2c(ccn2Cc2nc(-c3ccccc3OC)oc2C)c1)C(=O)O [Example 8, (S)-2-Ethoxy-3-{1-[2-(2-methoxy-phenyl)-5-methyl-oxazol-4-ylmethyl]-1H-indol-5-yl}-propionic Acid] |
| 0.06 | 0.12 | 0.05 | 0.05 | CCO[C@@H](Cc1ccc2c(ccn2Cc2nc(-c3ccc(F)c(C)c3)oc2C)c1)C(=O)O [Example 25, (S)-2-Ethoxy-3-{1-[2-(4-fluoro-3-methyl-phenyl)-5-methyl-oxazol-4-ylmethyl]-1H-indol-5-yl}-propionic Acid] |
| 5.24 | 1.64 | 1.41 | 2.7 | CCOC(Cc1ccc2c(c1)cc(C)n2Cc1csc(-c2ccccc2)n1)C(=O)O (racemic) [Example 44, Rac-2-Ethoxy-3-[2-methyl-1-(2-phenyl-thiazol-4-ylmethyl)-1H-indol-5-yl]-propionic Acid] |
| 0.03 | 0.03 | – | – | CCO[C@@H](Cc1ccc2c(ccn2Cc2nc(-c3cc(OC)cc(OC)c3)oc2C)c1)C(=O)O [Example 21, (S)-3-{1-[2-(3,5-Dimethoxy-phenyl)-5-methyl-oxazol-4-ylmethyl]-1H-indol-5-yl}-2-ethoxy-propionic Acid] |
| 0.08 | 0.03 | 0.18 | 0.13 | CCO[C@@H](Cc1ccc2c(ccn2Cc2nc(-c3ccc(C(F)(F)F)cc3)oc2C)c1)C(=O)O [Example 18, (S)-2-Ethoxy-3-{1-[5-methyl-2-(4-trifluoromethyl-phenyl)-oxazol-4-ylmethyl]-1H-indol-5-yl}-propionic Acid] |
| 0.47 | 0.06 | 0.11 | 0.02 | CCOC(Cc1ccc2c(c1)c(C)cn2Cc1nc(-c2ccc(F)c(C)c2)oc1C)C(=O)O (racemic) [Example 39, Rac-2-Ethoxy-3-{1-[2-(4-fluoro-3-methyl-phenyl)-5-methyl-oxazol-4-ylmethyl]-3-methyl-1H-indol-5-yl}-propionic Acid] |
